In patent US8129368B2, “5,6-dihydro-1H-pyridin-2-one compounds” (priority 2008, dated 2012) one finds EC50 data, which are given here for 19 compounds.

The subject of the assay is HCV Huh-luc/neo-ET replicon cells. The assay is described as follows: Luciferase-Based HCV Replicon Assay (EC50 (1b)). The class given is cell-based. The settings on record: Hepatitis C virus. How it is done: Luciferase-Based HCV Replicon Assay Protocol (EC50 (1b))
The cell culture component of the assay is performed essentially as described by Bartenschlager et al., Hepatology 2002, 35, 694-703, wherein exponentially growing HCV Huh-luc/neo-ET replicon cells were seeded at 6×10^3 cells/well in 96 well assay plate. 24 hours later the cells were treated with various concentrations of compound or combination of compounds in triplicate using both fixed ratios and checkerboard matrices of test agents and cultured for 72 hours. The luciferase activity in the wells was determined using Bright-Glo reagent (Promega, Madison, Wis.) with a luminometer (Wallac 1420 Multilabel HTS Counter Victor 2). The background control was replicon cells treated with 100 nM BILN-2061, an inhibitor of the HCV protease. % Inhibition was determined for each compound concentration in relation to the negative (no compound) control to calculate the EC50(1b).
For orientation: Replicon systems follow genome replication, usually without infectious particles.

[1] abbreviates: HCV Huh-luc/neo-ET replicon cells, 72 hours, luciferase activity, read-out: EC50 (1b).
The mark [2] stands for this setting: HCV Huh-luc/neo-ET replicon cells, 72 hours, luciferase activity, read-out: EC50(1b) concentration.
Setting [3] is: Huh-luc/neo-ET, 72 h, read-out: EC50 (1b).
Where [4] appears, read: Huh-luc/neo-ET, 72 h, read-out: EC50(1b) concentration.

Read-outs that look alike come from different tables or passages of the source. Where only a bound is given, the exact number is not on record here.

Regarding `CS(=O)(=O)Nc1ccc2c(c1)S(=O)(=O)NC(C1=C(O)C3C4CC(C5CC54)C3N(Cc3ccc(F)cc3)C1=O)=N2` (racemic) [Example 13, (rac-di-exo,di-exo)-N-{3-[3-(4-Fluoro-benzyl)-6-hydroxy-4-oxo-3-aza-tetracyclo[6.3.1.0^2,7.0^9,11]dodec-5-en-5-yl]-1,1-dioxo-1,2-dihydro-1λ^6-benzo[1,2,4]thiadiazin-7-yl}-methanesulfonamide], the EC50 under setting [1] is < 5 nM and the EC50 under setting [2] was < 25 nM.

As for `CS(=O)(=O)Nc1ccc2c(c1)S(=O)(=O)N=C(C1=C(O)[C@@H]3[C@H]4CC[C@H](C4)[C@@H]3N(Cc3ccc(F)cc3Cl)C1=O)N2` [Example 1, (1R,2S,7R,8S)—N-{3-[3-(2-Chloro-4-fluoro-benzyl)-6-hydroxy-4-oxo-3-aza-tricyclo[6.2.1.0^2,7]undec-5-en-5-yl]-1,1-dioxo-1,4-dihydro-1λ^6-benzo[1,2,4]thiadiazin-7-yl}-methanesulfonamide], the EC50 was < 5 nM under setting [1] and < 25 nM under setting [2].

For `CS(=O)(=O)Nc1ccc2c(c1)S(=O)(=O)N=C(C1=C(O)C3C4CCC(C4)C3N(Cc3ccc(F)c(Cl)c3)C1=O)N2` [Example 2, N-{3-[(1S,2S,7R,8R)-3-(Chloro-4-fluoro-benzyl)-6-hydroxy-4-oxo-3-aza-tricyclo[6.2.1.0^2,7]undec-5-en-5-yl]-1,1-dioxo-1,4-dihydro-1λ^6-benzo[1,2,4]thiadiazin-7-yl}-methanesulfonamide], the EC50 by setting is: under setting [3], < 5 nM; under setting [4], < 25 nM.

`COc1cccc(CN2C(=O)C(C3=NS(=O)(=O)c4cc(NS(C)(=O)=O)ccc4N3)=C(O)[C@@H]3C4CCC(CC4)[C@@H]32)c1` [Example 3, N-{3-[(2S,7R)-6-Hydroxy-3-(3-methoxy-benzyl)-4-oxo-3-aza-tricyclo[6.2.2.0^2,7]dodec-5-en-5-yl]-1,1-dioxo-1,4-dihydro-1λ^6-benzo[1,2,4]thiadiazin-7-yl}-methanesulfonamide]: the EC50 reads like this: under setting [1], < 5 nM; under setting [2], < 25 nM.

Turning to `CS(=O)(=O)Nc1ccc2c(c1)S(=O)(=O)N=C(C1=C(O)[C@@H]3C4CCC(CC4)[C@@H]3N(Cc3ccc(F)cc3F)C1=O)N2` [Example 4, N-{3-[(2S,7R)-3-(2,4-Difluoro-benzyl)-6-hydroxy-4-oxo-3-aza-tricyclo[6.2.2.0^2,7]dodec-5-en-5-yl]-1,1-dioxo-1,4-dihydro-1λ^6-benzo[1,2,4]thiadiazin-7-yl}-methanesulfonamide], the EC50 runs as follows: under setting [1], < 5 nM; under setting [2], < 25 nM.

Take `CS(=O)(=O)Nc1ccc2c(c1)S(=O)(=O)N=C(C1=C(O)[C@@H]3C4CCC(CC4)[C@@H]3N(Cc3ccc(F)cc3Cl)C1=O)N2` [Example 5, N-{3-[(2S,7R)-3-(2-Chloro-4-fluoro-benzyl)-6-hydroxy-4-oxo-3-aza-tricyclo[6.2.2.0^2,7]dodec-5-en-5-yl]-1,1-dioxo-1,4-dihydro-1λ^6-benzo[1,2,4]thiadiazin-7-yl}-methanesulfonamide]: the EC50 by setting is: under setting [1], 5 to 25 nM; under setting [2], < 25 nM.

For `CS(=O)(=O)Nc1ccc2c(c1)S(=O)(=O)N=C(C1=C(O)[C@@H]3C4CCC(CC4)[C@@H]3N(Cc3ccccc3Br)C1=O)N2` [Example 6, N-{3-[(2S,7R)-3-(2-Bromo-benzyl)-6-hydroxy-4-oxo-3-aza-tricyclo[6.2.2.0^2,7]dodec-5-en-5-yl]-1,1-dioxo-1,4-dihydro-1λ^6-benzo[1,2,4]thiadiazin-7-yl}-methanesulfonamide], the EC50 is, setting by setting: under setting [1], < 5 nM; under setting [2], < 25 nM.

Regarding `COc1cc(CN2C(=O)C(C3=NS(=O)(=O)c4cc(NS(C)(=O)=O)ccc4N3)=C(O)[C@@H]3C4CCC(CC4)[C@@H]32)ccc1F` [Example 7, N-{3-[(2S,7R)-3-(4-Fluoro-3-methoxy-benzyl)-6-hydroxy-4-oxo-3-aza-tricyclo[6.2.2.0^2,7]dodec-5-en-5-yl]-1,1-dioxo-1,4-dihydro-1λ^6-benzo[1,2,4]thiadiazin-7-yl}-methanesulfonamide], the EC50 was < 5 nM under setting [1] and < 25 nM under setting [2].

For the compound `CS(=O)(=O)Nc1ccc2c(c1)S(=O)(=O)N=C(C1=C(O)[C@@H]3C4CCC(CC4)[C@@H]3N(Cc3ccc(F)c(Cl)c3)C1=O)N2` [Example 8, N-{3-[(2S,7R)-3-(3-Chloro-4-fluoro-benzyl)-6-hydroxy-4-oxo-3-aza-tricyclo[6.2.2.0^2,7]dodec-5-en-5-yl]-1,1-dioxo-1,4-dihydro-1λ^6-benzo[1,2,4]thiadiazin-7-yl}-methanesulfonamide], the EC50 was < 5 nM under setting [1] and < 25 nM under setting [2].

As for `CC(C)(C)CCN1C(=O)C(C2=NS(=O)(=O)c3cc(NS(C)(=O)=O)ccc3N2)=C(O)[C@@H]2C3CCC(CC3)[C@@H]21` [Example 9, N-{3-[(2S,7R)-3-(3,3-Dimethyl-butyl)-6-hydroxy-4-oxo-3-aza-tricyclo[6.2.2.0^2,7]dodec-5-en-5-yl]-1,1-dioxo-1,4-dihydro-1λ^6-benzo[1,2,4]thiadiazin-7-yl}-methanesulfonamide], the EC50 is < 5 nM under setting [1] and < 25 nM under setting [2].

As to `CS(=O)(=O)Nc1ccc2c(c1)S(=O)(=O)N=C(C1=C(O)[C@@H]3C4CCC(CC4)[C@@H]3N(Cc3ccc(F)c(F)c3)C1=O)N2` [Example 10, N-{3-[(2S,7R)-3-(3,4-Difluoro-benzyl)-6-hydroxy-4-oxo-3-aza-tricyclo[6.2.2.0^2,7]dodec-5-en-5-yl]-1,1-dioxo-1,4-dihydro-1λ^6-benzo[1,2,4]thiadiazin-7-yl}-methanesulfonamide], the EC50 under setting [1] is < 5 nM and the EC50 under setting [2] is < 25 nM.

Turning to `Cc1cc(CN2C(=O)C(C3=NS(=O)(=O)c4cc(NS(C)(=O)=O)ccc4N3)=C(O)[C@@H]3C4CCC(CC4)[C@@H]32)ccc1F` [Example 11, N-{3-[(2S,7R)-3-(4-Fluoro-3-methyl-benzyl)-6-hydroxy-4-oxo-3-aza-tricyclo[6.2.2.0^2,7]dodec-5-en-5-yl]-1,1-dioxo-1,4-dihydro-1λ^6-benzo[1,2,4]thiadiazin-7-yl}-methanesulfonamide], the EC50 reads like this: under setting [1], < 5 nM; under setting [2], < 25 nM.

With `CS(=O)(=O)Nc1ccc2c(c1)S(=O)(=O)NC(C1=C(O)[C@@H]3C4CCC(CC4)[C@@H]3N(Cc3ccccc3)C1=O)=N2` [Example 12, N-{3-[(2S,7R)-3-Benzyl-6-hydroxy-4-oxo-3-aza-tricyclo[6.2.2.0^2,7]dodec-5-en-5-yl]-1,1-dioxo-1,2-dihydro-1λ^6-benzo[1,2,4]thiadiazin-7-yl}-methanesulfonamide], the EC50 under setting [1] is < 5 nM and the EC50 under setting [2] was < 25 nM.

With `CS(=O)(=O)Nc1ccc2c(c1)S(=O)(=O)NC(C1=C(O)[C@@H]3C4CCC(CC4)[C@@H]3N(Cc3cccc(F)c3)C1=O)=N2` [Example 14, N-{3-[(2S,7R)-3-(3-Fluoro-benzyl)-6-hydroxy-4-oxo-3-aza-tricyclo[6.2.2.0^2,7]dodec-5-en-5-yl]-1,1-dioxo-1,2-dihydro-1λ^6-benzo[1,2,4]thiadiazin-7-yl}-methanesulfonamide], the EC50 is, setting by setting: under setting [1], < 5 nM; under setting [2], < 25 nM.

For `CS(=O)(=O)Nc1ccc2c(c1)S(=O)(=O)NC(C1=C(O)[C@@H]3C4CCC(CC4)[C@@H]3N(CC3CCCCC3)C1=O)=N2` [Example 15, N-{3-[(2S,7R)-3-Cyclohexylmethyl-6-hydroxy-4-oxo-3-aza-tricyclo[6.2.2.0^2,7]dodec-5-en-5-yl]-1,1-dioxo-1,2-dihydro-1λ^6-benzo[1,2,4]thiadiazin-7-yl}-methanesulfonamide], the EC50 is, setting by setting: under setting [1], 5 to 25 nM; under setting [2], < 25 nM.

In the case of `CS(=O)(=O)Nc1ccc2c(c1)S(=O)(=O)NC(C1=C(O)[C@@H]3C4CCC(CC4)[C@@H]3N(Cc3cccs3)C1=O)=N2` [Example 16, N-{3-[(2S,7R)-6-Hydroxy-4-oxo-3-thiophen-2-ylmethyl-3-aza-tricyclo[6.2.2.0^2,7]dodec-5-en-5-yl]-1,1-dioxo-1,2-dihydro-1λ^6-benzo[1,2,4]thiadiazin-7-yl}-methanesulfonamide], the EC50 runs as follows: under setting [1], 5 to 25 nM; under setting [2], < 25 nM.

Regarding `Cc1ccccc1CN1C(=O)C(C2=Nc3ccc(NS(C)(=O)=O)cc3S(=O)(=O)N2)=C(O)[C@@H]2C3CCC(CC3)[C@@H]21` [Example 17, N-{3-[(2S,7R)-6-Hydroxy-3-(2-methyl-benzyl)-4-oxo-3-aza-tricyclo[6.2.2.0^2,7]dodec-5-en-5-yl]-1,1-dioxo-1,2-dihydro-1λ^6-benzo[1,2,4]thiadiazin-7-yl}-methanesulfonamide], the EC50 under setting [1] lay in the range of 5 to 25 nM and the EC50 under setting [2] is < 25 nM.

Consider `CS(=O)(=O)Nc1ccc2c(c1)S(=O)(=O)NC(C1=C(O)[C@@H]3C4CCC(CC4)[C@@H]3N(Cc3ccc(F)c(F)c3F)C1=O)=N2` [Example 18, N-{3-[(2S,7R)-6-Hydroxy-4-oxo-3-(2,3,4-trifluoro-benzyl)-3-aza-tricyclo[6.2.2.0^2,7]dodec-5-en-5-yl]-1,1-dioxo-1,2-dihydro-1λ^6-benzo[1,2,4]thiadiazin-7-yl}-methanesulfonamide], for which the EC50 by setting is: under setting [1], 5 to 25 nM; under setting [2], < 25 nM.

For the compound `CS(=O)(=O)Nc1ccc2c(c1)S(=O)(=O)NC(C1=C(O)[C@@H]3[C@@H]4CC[C@@H](C4)[C@@H]3N(Cc3ccccc3)C1=O)=N2` [Example 20], the EC50 runs as follows: under setting [3], 5 to 25 nM; under setting [4], < 25 nM.
